Data from patent US20210380988A1, “Reducing Prominin2-Mediated Resistance to Ferroptotic Cell Death” (University of Massachusetts, priority 2020, published 2021).
Where a SMILES comes first, the peptide text is derived from it. The star is where a group is joined. Cbz = O=C(OCc1ccccc1)*; CH2F = FC*

Assays:
Format in all cases: cell-based
HSF1 [1] = assay: HSF1 mRNA, protein, S326 phosphorylation and nuclear localization in MCF10A cells; conditions: for time after treatment at which the increase in HSF1 mRNA peaked: 25 uM 4HNE or 5 uM RSL3; for expression of HSF1 mRNA by qPCR: 25 uM 4HNE or 5 uM RSL3, 0 to 120 minutes; for HSF1 protein expression and phosphorylation at S326: after 60 minutes of exposure
Method: (§1) Biochemical experiments: Immunoblotting and qPCR were performed as described (Brown C W, 2017). Briefly, for immunoblotting, cell lysates were extracted using radioimmunoprecipitation assay (RIPA) buffer (Boston Bioproducts). Extracts were separated by SDS PAGE using the specified antibodies. Immunoprecipitation was performed on lysates isolated using NP-40 buffer (Boston Bioproducts). Lysates were pre-cleared prior to overnight incubation with the primary antibody and protein A agarose beads (Sigma-Aldrich). Immune complexes were separated by SDS PAGE and immunoblotted as described in figure legends. RNA was isolated from cells (BioBasic) and cDNA was generated using the All in One cDNA Synthesis SuperMix (BioScript Solutions). qPCR was performed using a SYBR green master mix (BioScript Solutions). Sequences for primers used were as follows: […]
(§2) Immunofluorescence microscopy: For adherent cells, 8 well chamber slides (Mattek) were coated with 1 μg/mL laminin (Invitrogen). Cells (5.0×10^4 per well) were plated overnight and then treated for two hours with either DMSO or RSL3, fixed in 4% paraformaldehyde and permeabilized in 0.1% Triton (JT Baker). Slides were blocked in 0.5% BSA (Boston Bioproducts), incubated in antibody overnight at 4° C., washed in PBS and incubated in secondary antibody for 1 hr at room temperature. Slides were washed and mounted in Vectashield with DAPI (Vector Labs). For ECM-detached experiments, cells were trypsinized and plated (5.0×10^5 per well) in 60 mm low-adherent plates (Sumitomo Bakelite) for two hr, collected and spun down prior to being fixed and stained as described above. Slides were imaged on a Zeiss or a Nikon A-1 confocal microscope.

prominin2 [2] = assay: PROM2 mRNA (qPCR) and prominin2 protein (immunoblot) expression in MCF10A cells; conditions: for prominin2 mRNA and protein expression: adherent MCF10A, 2 hrs, 5 μM RSL3, 250 μM H2O2
Method: as §1

HSF1 [3] = assay: HSF1 mRNA, protein, S326 phosphorylation and nuclear localization in MCF10A cells; conditions: after 60 minutes of exposure
MDA-MB-231 cells [4] = assay: Survival of adherent cells in response to GPX4 inhibition (crystal violet); conditions: for cell death in response to compound with exogenous prominin2 expression: MDA-MB-231, prominin2 expression construct vs vector control
Method: (§3) Cell-based assays: Assays to assess survival in response to matrix detachment were performed as described (Brown C W, 2017). To assay survival in response to GPX4 inhibition, adherent cells in 96 well plates (1.0×10^4 per well) were treated with either DMSO, RSL3, ML210, FIN56 or erastin for 24 hrs with and without ferrostatin-1 or DFO. Subsequently, cells were fixed in 4% paraformaldehyde (Boston BioProducts), stained with crystal violet (Sigma) and read on a microplate reader (Beckman Colter) at absorbance 595. Absorbances were normalized to DMSO.

Hs578t cells [5] = assay: as above; conditions: for sensitivity to compound in prominin2 knock-down cells compared to control cells: prominin2 siRNA 48 hours, compound 24 hrs
Method: as §3

MCF10A cells [6] = assay: as above; conditions: for sensitivity to compound in prominin2 knock-down cells compared to control cells: prominin2 siRNA 48 hours, compound 24 hrs
Method: as §3

prominin2 [7] = assay: PROM2 mRNA (qPCR) and prominin2 protein (immunoblot) expression in Hs578t cells; conditions: adherent Hs578t, 2 hrs; 5 μM RSL3, 250 μM H2O2
Method: as §1

prominin1 (CD133) = assay: PROM1 expression by qPCR; conditions: MCF10A and Hs578t cells, 5 μM RSL3, 2 hrs (FIG. 8A)
Method: as §1

MCF10A and Hs578t cells = assay: Exosome isolation by ultracentrifugation (protein, ICP-MS iron)
Method: Exosome isolation: Cells were cultured for 24 hrs in their respective media containing extracellular vesicle (EV) free serum and treated with RSL3 for 24 hours. Culture supernatants were centrifuged at 4° C. at 1000 RPM for 5 min, 3000 RPM for 10 min, 4000 RPM for 30 min prior to ultracentrifugation at 22,000 RPM for 140 min at 4° C. Pellets were resuspended in cold PBS and centrifuged again under the same conditions. For immunoblotting, pellets were lysed in RIPA buffer, centrifuged at 10,000 RPM for 15 min and protein concentration was determined by Bradford Assay (BioRad). For TEM, PBS was removed and 20 μL of the exosome preparation was fixed and processed. For ICP-mass spec, exosome-containing pellet was resuspended in 0.5 mL PBS and centrifuged in a speed-vac at 45° C. Samples were sent to the UMASS Mass Spectrometry Core where they were digested in 100 μL HNO3, heated to 65° C. for 20 min and diluted to 2 mL with ddH2O before analysis.

prominin2 [8] = assay: PROM2 mRNA (qPCR) and prominin2 protein (immunoblot) expression in MDA-MB-231 cells; conditions: adherent MDA-MB-231, RSL3 2 hrs
Method: as §1

MDA-MB-231 cells [9] = assay: Total free iron (Iron Assay Kit); conditions: MDA-MB-231 vector control, RSL3 2 hrs; prevented by prominin2 expression
Method: (§4) Total free iron was quantified using the Iron Assay Kit (Abcam) per manufacturer's specifications. Briefly, adherent cells in 10 cm plates (1.0×10^6/well) were treated with either DMSO or RSL3 for 2 hrs, lysed and supernatant was reduced using the provided iron reducer before the mixture was reacted with an iron probe. Plates were read at 595 nm and total iron concentration was obtained using an iron standard curve.

Hs578t cells [10] = assay: Total free iron (Iron Assay Kit)
Method: as §4

MCF10A cells [11] = assay: Total free iron (Iron Assay Kit)
Method: as §4

Hs578t cells [12] = assay: Multivesicular body formation (TSG101 immunofluorescence); conditions: RSL3 2 hrs
Method: as §2

MCF10A cells [13] = assay: Multivesicular body formation (TSG101 immunofluorescence, TEM)
Method: as §2
Transmission Electron Microscopy: Adherent siControl and siProminin2 cells were treated with DMSO or RSL3 (5 μM) for two hr. ECM-detached siControl and siProminin2 cells were maintained for 2 hrs in low-adherence plates. All cells were fixed by adding 2.5% glutaraldehyde (v/v) in 0.1 M Na cacodylate buffer (pH 7.2) and processed for TEM. The samples were examined on a FEI Tecnai 12 BT transmission electron microscope using 100 Kv accelerating voltage. Images were captured using a Gatan TEM CCD camera.

Hs578t cells [14] = assay: Survival in response to matrix (ECM) detachment; conditions: 24 hrs, ferrostatin-1 (2 μM), ZVAD-fmk (25 μM), deferoxamine
Method: as §3

MCF10A cells [15] = assay: Survival in response to matrix (ECM) detachment; conditions: 24 hrs, ferrostatin-1 (2 μM), ZVAD-fmk (25 μM), deferoxamine
Method: as §3

CCCCCC(O)/C=C/C=O (centres unmarked) [4HNE, 4-hydroxynonenal]
time after treatment at which the increase in HSF1 mRNA peaked (HSF1 [1]): 15 min | expression of HSF1 mRNA by qPCR (HSF1 [1]): significant increase | HSF1 protein expression and phosphorylation at S326 (HSF1 [1]): increased HSF1 protein expression levels as well as phosphorylation at S326 | PROM2 transcription (prominin2 [2]; mechanism dependent upon HSF1, cell line not named at b183): stimulates PROM2 transcription | HSF1 expression and nuclear localization (HSF1 [3]): increased

Cc1ccc(-n2nc(C(C)(C)C)cc2NC(=O)Nc2ccc(OCCN3CCOCC3)c3ccccc23)cc1 [BIRB]
induction and phosphorylation of HSF1 following 4HNE or RSL3 treatment (HSF1 [1]; 10 uM BIRB pretreatment): prevented the induction and phosphorylation of HSF1 | increase in HSF1 expression and nuclear localization, treatment prior to 4HNE or RSL3 (HSF1 [1]; 10 uM BIRB pretreatment 15 minutes): significantly reduced the increase in expression and nuclear localization | 4HNE- or RSL3-driven increase in HSF1 expression on p38 inhibition (HSF1 [1]; pre-treated with 10 uM BIRB, after 30 minutes of treatment): reduced the 4HNE- or RLS3-driven increase in HSF1 to basal levels

O=S(=O)(NC1CCCCC1)c1ccc2c(c1)C(=NO)c1cc(S(=O)(=O)NC3CCCCC3)ccc1-2 [FIN56]
cell death in response to compound with exogenous prominin2 expression (MDA-MB-231 cells [4]): sufficient to inhibit cell death | sensitivity to compound in prominin2 knock-down cells compared to control cells (Hs578t cells [5]; Hs578t): significant increase in sensitivity | sensitivity to compound in prominin2 knock-down cells compared to control cells (MCF10A cells [6]; MCF10A): significant increase in sensitivity

O=C(/C=C/c1ccc(/C=C/C(=O)Nc2ccc(C3=NCCN3)cc2)cc1)Nc1ccc(C2=NCCN2)cc1 [GW4869]
sensitivity of cells to RSL3 on inhibition of exosome release (Hs578t cells [5]; Hs578t, RSL3 (5 μM) and GW4869 (20 μM), 24 hrs): increased the sensitivity | sensitivity of cells to RSL3 on inhibition of exosome release (MCF10A cells [6]; MCF10A, RSL3 (5 μM) and GW4869 (20 μM), 24 hrs): increased the sensitivity

OO [H2O2]
prominin2 mRNA and protein expression (prominin2 [2]): did not increase prominin2 expression | prominin2 mRNA and protein expression (prominin2 [7]): did not increase prominin2 expression

Cl.N [NH4Cl]
effect on cell survival following GPX4 inhibition (Hs578t cells [5]; Hs578t, 20 mM NH4Cl pre-treatment 60 min, then with RSL3 24 hrs (FIG. 10D)): had no effect on cell survival

COC(=O)c1ccc([C@@H]2c3[nH]c4ccccc4c3C[C@@H](C(=O)OC)N2C(=O)CCl)cc1 [RSL3]
time after treatment at which the increase in HSF1 mRNA peaked (HSF1 [1]): 15 min | expression of HSF1 mRNA by qPCR (HSF1 [1]): significant increase | HSF1 protein expression and phosphorylation at S326 (HSF1 [1]): increased HSF1 protein expression levels as well as phosphorylation at S326 | expression of prominin1 (CD133) (prominin1 (CD133)): not altered significantly | prominin2 mRNA and protein expression (prominin2 [2]): increased prominin2 mRNA and protein expression | protein in the exosome preparation (MCF10A and Hs578t cells; 1 μM RSL3, 24 hours, exosomal protein in control cells not detected): significant amount of protein | iron in exosomes by ICP-MS (MCF10A and Hs578t cells; exosomes harvested from RSL3-treated cells): 3400 ng per exosome collection sample | cell death in response to compound with exogenous prominin2 expression (MDA-MB-231 cells [4]): sufficient to inhibit cell death | RSL3 concentrations by which cells were killed (MDA-MB-231 cells [4]; adherent MDA-MB-231, 24 hrs, FIG. 1F): ≥ 0.5 µM | sensitivity to compound in prominin2 knock-down cells compared to control cells (Hs578t cells [5]; Hs578t): significant increase in sensitivity | RSL3 concentrations at which cells were resistant to RSL3-induced cell death (Hs578t cells [5]; adherent Hs578t, 24 hrs, FIG. 1F): up to 2.5 | sensitivity to compound in prominin2 knock-down cells compared to control cells (MCF10A cells [6]; MCF10A): significant increase in sensitivity | RSL3 concentrations at which cells were resistant to RSL3-induced cell death (MCF10A cells [6]; adherent MCF10A, 24 hrs, FIG. 1F): up to 2.5 | induction of prominin2 (prominin2 [8]): did not induce prominin2 | free iron in response to RSL3 in control cells (MDA-MB-231 cells [9]): increase in iron | free iron concentration, RSL3-treated vs control cells (Hs578t cells [10]; 5 μM RSL3, 2 hrs): no significant difference | concentration of free iron following RSL3 treatment when either prominin2 or both FTH1 and FTL were silenced (Hs578t cells [10]; siRNA 48 hrs, RSL3 2 hrs): increase | free iron concentration, RSL3-treated vs control cells (MCF10A cells [11]; 5 μM RSL3, 2 hrs): no significant difference | concentration of free iron following RSL3 treatment when either prominin2 or both FTH1 and FTL were silenced (MCF10A cells [11]; siRNA 48 hrs, RSL3 2 hrs): increase | TSG101-positive structures vs vehicle control-treated cells (Hs578t cells [12]): more TSG101-positive structures | TSG101-positive structures vs vehicle control-treated cells (MCF10A cells [13]; RSL3 2 hrs): more TSG101-positive structures | MVBs per cell by TEM vs control cells (MCF10A cells [13]; RSL3, effect not observed in prominin2-silenced cells): significantly more MVBs per cell | prominin2 mRNA and protein expression (prominin2 [7]): increased prominin2 mRNA and protein expression | HSF1 expression and nuclear localization (HSF1 [3]): increased

COC(=O)C[C@H](NC(=O)[C@H](C)NC(=O)[C@@H](NC(=O)OCc1ccccc1)C(C)C)C(=O)CF [ZVAD-fmk] (Cbz-Val-Ala-Asp(OMe)-CH2F)
rescue of cell viability of ECM-detached prominin2-silenced cells by co-treatment (Hs578t cells [14]): not | rescue of cell viability of ECM-detached prominin2-silenced cells by co-treatment (MCF10A cells [15]): not

C#Cc1cccc(Nc2ncnc3cc(OCCOC)c(OCCOC)cc23)c1 [erlotinib]
sensitivity to RSL3 on co-treatment with other therapeutics (MCF10A cells [6]; MCF10A, 100 nM Dasatinib or 25 uM Erlotinib with RSL3, 24 hours): did not significantly improve sensitivity

CCOC(=O)c1ccc(NC2CCCCC2)c(N)c1 [ferrostatin-1]
rescue of cell death triggered by GPX4 inhibition in FTH1 and FTL knock-down cells (Hs578t cells [5]; Hs578t, RSL3 24 hrs, 100 uM deferoxamine): rescued | rescue of loss of cell viability in prominin2-depleted cells (Hs578t cells [5]; Hs578t, RSL3 (5 μM) and ferrostatin-1 (2 μM), 24 hrs): completely rescued | rescue of cell death triggered by GPX4 inhibition in FTH1 and FTL knock-down cells (MCF10A cells [6]; MCF10A, RSL3 24 hrs, 100 uM deferoxamine): rescued | rescue of loss of cell viability in prominin2-depleted cells (MCF10A cells [6]; MCF10A, RSL3 (5 μM) and ferrostatin-1 (2 μM), 24 hrs): completely rescued | rescue of RSL3-induced cell death in cells with diminished TSG101 expression (MCF10A cells [6]; MCF10A, TSG101 siRNA 48 hours, RSL3 and ferrostatin-1 24 hrs (FIG. 4C)): rescued | rescue of cell viability of ECM-detached prominin2-silenced cells by co-treatment (Hs578t cells [14]): rescued | rescue of cell viability of ECM-detached prominin2-silenced cells by co-treatment (MCF10A cells [15]): rescued
